Here are results for nine compounds from the NIST ThermoML archive (doi:10.1016/j.jct.2012.03.034).

Molecules are shown by their SMILES. ± gives the expanded uncertainty stated by the source.

The conditions of data set [1]: 298.15 K, 101.33 kPa, Liquid; for speed of sound: Linear variable-path acoustic interferometer; for mass density: Vibrating tube method; for viscosity: dual vibrating plate viscometer, AandD Co. Ltd Model SV-10.
Data set [2] can be described thus: xn = mol fraction of the nth substance listed. The conditions noted are these: 101 kPa, Liquid, x2 = 0; for speed of sound: Linear variable-path acoustic interferometer; for mass density: Vibrating tube method; for viscosity: dual vibrating plate viscometer, AandD Co. Ltd Model SV-10.

For the compound `CN1CCCC1=O` [N-methylpyrrolidone], in data set [1], the speed of sound came to 1552 ± 2 m/s, the mass density is given as 1025.9 ± 0.31 kg/m3 and the viscosity was 1.66 ± 0.03 mPa·s.
Take `CN1CCCC1=O` [N-methylpyrrolidone] + CC(=O)O.CCN(CC)CC: the speed of sound in data set [2] (298.15 K) worked out at 1572 ± 2 m/s; in data set [2] (303.15 K) it was 1552 ± 2 m/s; in data set [2] (308.15 K) it was 1528 ± 2 m/s; in data set [2] (313.15 K), 1520 ± 2 m/s. Also, the mass density is recorded as 1025.9 ± 0.3 kg/m3 in data set [2] (298.15 K), 1023.74 ± 0.3 kg/m3 in data set [2] (303.15 K), 1019.25 ± 0.3 kg/m3 in data set [2] (308.15 K) and 1014.74 ± 0.3 kg/m3 in data set [2] (313.15 K). The viscosity in data set [2] (298.15 K) turned out to be 1.66 ± 0.03 mPa·s; in data set [2] (303.15 K) it was 1.49 ± 0.03 mPa·s; in data set [2] (308.15 K) it was 1.39 ± 0.03 mPa·s; in data set [2] (313.15 K) it was 1.31 ± 0.03 mPa·s.
For the compound `CN1CCCC1=O` [N-methylpyrrolidone] + CC(=O)[O-].CC[NH2+]CC, the speed of sound is given as 1572 ± 2 m/s in data set [2] (298.15 K), 1552 ± 2 m/s in data set [2] (303.15 K), 1528 ± 2 m/s in data set [2] (308.15 K) and 1520 ± 2 m/s in data set [2] (313.15 K). For the same compound, the mass density in data set [2] (298.15 K) is 1025.9 ± 0.3 kg/m3; in data set [2] (303.15 K), 1023.74 ± 0.3 kg/m3; in data set [2] (308.15 K), 1019.25 ± 0.3 kg/m3; in data set [2] (313.15 K), 1014.74 ± 0.3 kg/m3. Besides, the viscosity in data set [2] (298.15 K) was 1.66 ± 0.03 mPa·s; in data set [2] (303.15 K), 1.49 ± 0.03 mPa·s; in data set [2] (308.15 K), 1.39 ± 0.03 mPa·s; in data set [2] (313.15 K), 1.31 ± 0.03 mPa·s.
With `CN1CCCC1=O` [N-methylpyrrolidone] + CC[NH2+]CC.O=S(=O)([O-])O, the speed of sound amounted to 1572 ± 2 m/s in data set [2] (298.15 K), 1552 ± 2 m/s in data set [2] (303.15 K), 1528 ± 2 m/s in data set [2] (308.15 K) and 1520 ± 2 m/s in data set [2] (313.15 K). In addition, the mass density in data set [2] (298.15 K) was found to be 1025.9 ± 0.3 kg/m3; in data set [2] (303.15 K), 1023.74 ± 0.3 kg/m3; in data set [2] (308.15 K) it was 1019.25 ± 0.3 kg/m3; in data set [2] (313.15 K) it was 1014.74 ± 0.3 kg/m3. The viscosity was 1.66 ± 0.03 mPa·s in data set [2] (298.15 K), 1.49 ± 0.03 mPa·s in data set [2] (303.15 K), 1.39 ± 0.03 mPa·s in data set [2] (308.15 K) and 1.31 ± 0.03 mPa·s in data set [2] (313.15 K).
Regarding `CN1CCCC1=O` [N-methylpyrrolidone] + CC[NH+](CC)CC.O=S(=O)([O-])O, the speed of sound in data set [2] (298.15 K) worked out at 1572 ± 2 m/s; in data set [2] (303.15 K), 1552 ± 2 m/s; in data set [2] (308.15 K), 1528 ± 2 m/s; in data set [2] (313.15 K), 1520 ± 2 m/s. Also, the mass density in data set [2] (298.15 K) is given as 1025.9 ± 0.3 kg/m3; in data set [2] (303.15 K) it was 1023.74 ± 0.3 kg/m3; in data set [2] (308.15 K), 1019.25 ± 0.3 kg/m3; in data set [2] (313.15 K) it was 1014.74 ± 0.3 kg/m3. In addition, the values for the viscosity in data set [2] (308.15 K) and in data set [2] (313.15 K) were 1.39 ± 0.03 mPa·s and 1.31 ± 0.03 mPa·s, respectively.
Take `CC(=O)[O-].CC[NH2+]CC` [diethylammonium acetate]: in data set [1], the speed of sound was determined as 1608 ± 2 m/s, the mass density is reported as 1021.41 ± 0.32 kg/m3 and the viscosity worked out at 16.36 ± 0.23 mPa·s.
As to `CC[NH2+]CC.O=S(=O)([O-])O` [diethylammonium hydrogen sulfate], in data set [1], the speed of sound is 1432 ± 2 m/s, the mass density was 1283.95 ± 0.61 kg/m3 and the viscosity is 34.1 ± 0.63 mPa·s.
As to `CC(=O)O.CCN(CC)CC` [triethylammonium acetate], in data set [1], the speed of sound is reported as 1840 ± 2 m/s, the mass density is reported as 1015.86 ± 0.32 kg/m3 and the viscosity worked out at 24.14 ± 0.39 mPa·s.
The like results for `CC[NH+](CC)CC.O=S(=O)([O-])O` [triethylammonium hydrogen sulfate] were, in that order, 1874 ± 2 m/s, 1142.89 ± 0.45 kg/m3 and 235 ± 13 mPa·s.
